Experimental data taken from ChEMBL document CHEMBL4354827, “Discovery of Novel, Potent, Brain-Permeable, and Orally Efficacious Positive Allosteric Modulator of α7 Nicotinic Acetylcholine Receptor [4-(5-(4-Chlorophenyl)-4-methyl-2-propionylthiophen-3-yl)benzenesulfonamide]: Structure-Activity Relationship and Preclinical Characterization” (J Med Chem, 2020).
Each block holds one compound with its values, some of them ahead of it.

Tests used:
[1] = Drug level in DBA/2 mouse brain at 0.3 mg/kg, iv after 10 mins; format: ADME, organism-based; conditions: read-out: Drug uptake
[2] = Drug level in NSA mouse brain at 0.3 mg/kg, po after 120 to 150 mins; format: ADME, organism-based; conditions: in vivo, read-out: Drug uptake
[3] = Drug level in DBA/2 mouse brain at 0.3 mg/kg, iv after 90 mins; format: ADME, organism-based; conditions: read-out: Drug uptake
[4] = Drug level in Sprague-Dawley rat cerebrospinal fluid at 3 mg/kg, po; format: ADME, organism-based; conditions: in vivo
[5] = Ratio of drug level in Sprague-Dawley rat brain to plasma at 3 mg/kg, po after 1 hr; format: ADME, organism-based; conditions: brain and plasma, read-out: BPR
[6] = Drug concentration in Sprague-Dawley rat plasma at 3 mg/kg, po after 1 hr; format: ADME, organism-based
[7] = Drug concentration in Sprague-Dawley rat brain at 3 mg/kg, po after 1 hr; format: ADME, organism-based; conditions: read-out: Drug uptake
[8] = Ratio of drug level in Swiss mouse brain to plasma at 40 mg/kg, sc after 30 mins by LC-MS analysis; format: ADME, organism-based; conditions: brain and plasma, read-out: BPR
[9] = Drug concentration in Swiss mouse plasma at 40 mg/kg, sc after 30 mins by LC-MS analysis; format: ADME, organism-based
[10] = Drug concentration in Swiss mouse brain at 40 mg/kg, sc after 30 mins by LC-MS analysis; format: ADME, organism-based; conditions: read-out: Drug uptake
[11] = test system: Rattus norvegicus; assay: Memory enhancement effect in time-delay induced Wistar rat model of amnesia assessed as exploration time for novel object in retention trial at 0.05 mg/kg, po for 7 days and measured on day 8 by novel object recognition test (reference value: 15.37 sec); format: functional
[12] = test system: Rattus norvegicus; assay: Improvement in social recognition time delay-induced Sprague-Dawley rat model of amnesia assessed as increase in reduction in social investigation time at 3 mg/kg, po administered as single dose prior to 1 hr training and measured after 30 mins (reference value: 0.39%); format: functional; design: scale not given: the % may be the effect or the level left
[13] = Drug concentration in Wistar rat plasma at 3 mg/kg, po after 2 hrs by LC-MS/MS analysis; format: ADME, organism-based
[14] = Drug level in Wistar rat brain at 3 mg/kg, po after 2 hrs by LC-MS/MS analysis; format: ADME, organism-based; conditions: read-out: Drug uptake
[15] = test system: Rattus norvegicus; assay: Memory enhancement effect in time-delay induced Wistar rat model of amnesia assessed as exploration time for novel object at 3 mg/kg, po administered as single dose after acquisition trial by novel object recognition test (reference value: 12.81 sec); format: functional
[16] = test system: Rattus norvegicus; assay: Memory enhancement effect in scopolamine-induced Wistar rat model of amnesia assessed as exploration time for object1 in acquisition trial at 0.15 mg/kg, po administered as single dose and measured on day 8 by novel object recognition test (reference value: 16.11 sec); format: functional
[17] = test system: Rattus norvegicus; assay: Improvement in social recognition time delay-induced Sprague-Dawley rat model of amnesia assessed as increase in reduction in social investigation time at 0.15 mg/kg, po for 7 days and measured on day 9 (reference value: -0.5%); format: functional; design: scale not given: the % may be the effect or the level left
[18] = test system: Rattus norvegicus; assay: Memory enhancement effect in time-delay induced Wistar rat model of amnesia assessed as exploration time for object2 at 3 mg/kg, po administered as single dose after acquisition trial by novel object recognition test (reference value: 21.07 sec); format: functional
[19] = test system: Rattus norvegicus; assay: Memory enhancement effect in time-delay induced Wistar rat model of amnesia assessed as exploration time for object1 in acquisition trial at 0.05 mg/kg, po for 7 days and measured on day 8 by novel object recognition test (reference value: 13.73 sec); format: functional
[20] = test system: Rattus norvegicus; assay: Memory enhancement effect in time-delay induced Wistar rat model of amnesia assessed as exploration time for object2 in acquisition trial at 0.05 mg/kg, po for 7 days and measured on day 8 by novel object recognition test (reference value: 11.76 sec); format: functional
[21] = test system: Rattus norvegicus; assay: Memory enhancement effect in time-delay induced Wistar rat model of amnesia assessed as exploration time for familiar object in retention trial at 0.05 mg/kg, po for 7 days and measured on day 8 by novel object recognition test (reference value: 10.20 sec); format: functional
[22] = test system: Rattus norvegicus; assay: Memory enhancement effect in scopolamine-induced Wistar rat model of amnesia assessed as exploration time for object2 in acquisition trial at 0.15 mg/kg, po administered as single dose and measured on day 8 by novel object recognition test (reference value: 15.63 sec); format: functional
[23] = test system: Rattus norvegicus; assay: Memory enhancement effect in time-delay induced Wistar rat model of amnesia assessed as exploration time for object1 at 3 mg/kg, po administered as single dose after acquisition trial by novel object recognition test (reference value: 19.09 sec); format: functional
[24] = test system: Rattus norvegicus; assay: Memory enhancement effect in scopolamine-induced Wistar rat model of amnesia assessed as exploration time for object1 in acquisition trial at 0.05 mg/kg, po for 7 days and measured on day 8 by novel object recognition test (reference value: 16.11 sec); format: functional
[25] = test system: Rattus norvegicus; assay: Memory enhancement effect in scopolamine-induced Wistar rat model of amnesia assessed as exploration time for familiar object in retention trial at 0.15 mg/kg, po administered as single dose and measured on day 9 by novel object recognition test (reference value: 8.59 sec); format: functional
[26] = test system: Rattus norvegicus; assay: Memory enhancement effect in time-delay induced Wistar rat model of amnesia assessed as exploration time for familiar object at 3 mg/kg, po administered as single dose after acquisition trial by novel object recognition test (reference value: 10.6 sec); format: functional
[27] = test system: Rattus norvegicus; assay: Memory enhancement effect in time-delay induced Wistar rat model of amnesia assessed as exploration time for object1 in acquisition trial at 3 mg/kg, po administered as single dose and measured on day 8 by novel object recognition test (reference value: 13.95 sec); format: functional
[28] = test system: Rattus norvegicus; assay: Memory enhancement effect in time-delay induced Wistar rat model of amnesia assessed as exploration time for familiar object in retention trial at 3 mg/kg, po administered as single dose and measured on day 9 by novel object recognition test (reference value: 13.05 sec); format: functional
[29] = test system: Rattus norvegicus; assay: Memory enhancement effect in scopolamine-induced Wistar rat model of amnesia assessed as increase in exploration time for novel object in retention trial at 0.15 mg/kg, po administered as single dose and measured on day 9 by novel object recognition test (reference value: 12.09 sec); format: functional
[30] = Ratio of drug level in brain to plasma in Wistar rat at 3 mg/kg, po after 2 hrs by LC-MS/MS analysis; format: ADME, organism-based; conditions: brain and plasma, read-out: BPR
[31] = test system: Rattus norvegicus; assay: Memory enhancement effect in time-delay induced Wistar rat model of amnesia assessed as increase in exploration time for novel object in retention trial at 3 mg/kg, po administered as single dose and measured on day 9 by novel object recognition test (reference value: 12.06 sec); format: functional
[32] = test system: Rattus norvegicus; assay: Memory enhancement effect in scopolamine-induced Wistar rat model of amnesia assessed as exploration time for object2 in acquisition trial at 0.05 mg/kg, po for 7 days and measured on day 8 by novel object recognition test (reference value: 15.63 sec); format: functional
[33] = test system: Rattus norvegicus; assay: Improvement in social recognition scopolamine-induced Sprague-Dawley rat model of amnesia assessed as increase in reduction in social investigation time at 3 mg/kg, po administered as single dose prior to 1 hr training and measured after 30 mins (reference value: 9.81%); format: functional; design: scale not given: the % may be the effect or the level left
[34] = test system: Rattus norvegicus; assay: Memory enhancement effect in scopolamine-induced Wistar rat model of amnesia assessed as exploration time for novel object in retention trial at 0.05 mg/kg, po for 7 days and measured on day 8 by novel object recognition test (reference value: 12.09 sec); format: functional
[35] = test system: Rattus norvegicus; assay: Improvement in social recognition scopolamine-induced Sprague-Dawley rat model of amnesia assessed as increase in reduction in social investigation time at 0.15 mg/kg, po for 7 days measured after 24 hrs (Rvb =6.59%); format: functional; design: scale not given: the % may be the effect or the level left
[36] = test system: Rattus norvegicus; assay: Memory enhancement effect in time-delay induced Wistar rat model of amnesia assessed as exploration time for object2 in acquisition trial at 3 mg/kg, po administered as single dose and measured on day 8 by novel object recognition test (reference value: 16.33 sec); format: functional
[37] = test system: Rattus norvegicus; assay: Memory enhancement effect in scopolamine-induced Wistar rat model of amnesia assessed as exploration time for familiar object in retention trial at 0.05 mg/kg, po for 7 days and measured on day 8 by novel object recognition test (reference value: 8.59 sec); format: functional
[38] = Drug level in rat plasma at 10 mg/kg, ip after 120 mins by HPLC-LC/MS analysis; format: ADME, organism-based
[39] = Ratio of drug level in rat brain to plasma at 10 mg/kg, ip by HPLC-LC/MS analysis; format: ADME, organism-based; conditions: brain and plasma, read-out: BPR

SMILES: COc1ccc(Cl)cc1C(=O)N[C@@H]1[C@@H](c2ccc(S(N)(=O)=O)cc2)C1(C)C
Drug uptake [4]: 12.1 ng/mL

SMILES: COc1cc(OC)c(NC(=O)Nc2cc(C)on2)cc1Cl
Kp at 1 h [5]: 1.18
concentration at 1 h [6]: 43.1 ng/mL
concentration at 1 h [7]: 50.8 ng/g

SMILES: CCC(=O)c1cc(-c2ccc(Cl)cc2)n(-c2ccc(S(N)(=O)=O)cc2)c1C
Time [11]: 14.16 s
Activity [12]: 35.28%
concentration at 2 h [13]: 700 to 1050 nM
concentration at 2 h [14]: 110 to 140 nM
Time [15]: 14.61 s
Time [16]: 14.7 s
Activity [17]: 65.75%
Time [18]: 17.17 s
Time [19]: 11.58 s
Time [20]: 12.59 s
Time [21]: 10.19 s
Time [22]: 14.75 s
Time [23]: 12.7 s
Time [24]: 14.7 s
Time [25]: 5.7 s
Time [26]: 8.05 s
Time [27]: 25.62 s
Time [28]: 11.47 s
Time [29]: 16.33 s
Kp at 2 h [30]: 0.1 to 0.2
Time [31]: 28.31 s
Time [32]: 14.75 s
Activity [33]: 50.67%
Time [34]: 16.33 s
Activity [35]: 31.8%
Time [36]: 20.37 s
Time [37]: 5.7 s

SMILES: O=C(Nc1cc(Cl)ccc1O)Nc1cc(C(F)(F)F)ccc1Cl
concentration at 2 h [38]: 172 ng/mL
Kp [39]: 0.5

Now from value to compound:

concentration at 10 min [1]: 1000 nM
concentration [2]: 150 to 300 nM
concentration at 1.5 h [3]: 300 nM
SMILES: Cc1cc(/C(=C/Nc2ccc(Cl)cc2)C(=O)Nc2ccc(Cl)cc2)on1 [AVL-3288]

Kp at 0.5 h [8]: 0.3
concentration at 0.5 h [9]: 5920 ng/mL
concentration at 0.5 h [10]: 1910 ng/g
SMILES: OCc1sc(Nc2ccc(F)c(C(F)(F)F)c2)nc1-c1ccncc1
